Experimental data as given in article PMC11053447, “Human ABC and SLC Transporters: The Culprit Responsible for Unspecific PSMA-617 Uptake?” (Pharmaceuticals, 2024).

Assays:
human OAT2v1 = biological target: T1, human OAT2v1 (Homo sapiens, UniProt Q9Y694); experiment: SLC transporter substrate assay, HEK293-OAT2v1-LV vs control HEK293-Mock-LV cells; assay type: in vitro ADME; settings: 20 min
T1 construct: host or cells: HEK293-OAT2v1-LV
T1 sequence (Q9Y694 1-546 isoform Q9Y694-2): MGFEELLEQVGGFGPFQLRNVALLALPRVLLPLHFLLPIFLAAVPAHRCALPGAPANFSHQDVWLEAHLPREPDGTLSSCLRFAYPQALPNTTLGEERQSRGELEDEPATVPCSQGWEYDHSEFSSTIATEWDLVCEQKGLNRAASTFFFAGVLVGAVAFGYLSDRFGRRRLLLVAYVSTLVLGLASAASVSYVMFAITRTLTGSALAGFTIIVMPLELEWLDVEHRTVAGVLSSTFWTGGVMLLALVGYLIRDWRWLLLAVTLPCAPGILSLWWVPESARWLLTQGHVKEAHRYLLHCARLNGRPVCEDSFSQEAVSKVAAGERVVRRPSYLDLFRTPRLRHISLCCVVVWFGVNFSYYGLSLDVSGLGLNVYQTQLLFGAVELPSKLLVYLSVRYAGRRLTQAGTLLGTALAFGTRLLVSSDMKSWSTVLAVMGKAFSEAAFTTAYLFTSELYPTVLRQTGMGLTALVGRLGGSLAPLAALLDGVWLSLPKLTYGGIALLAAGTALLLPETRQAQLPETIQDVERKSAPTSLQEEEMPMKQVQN
Description: (§1) SI4. Results of transporter substrate assays (SLC)
(§2) Human Incubation Positive control substrate/ Control Special Incubation Assay […]
(Cell line) at 37°C [min] [h]
OAT2v1 cGMP (1.5) / Mock-B- Poly-D-lysine
(§3) Fold accumulation = UPTTRP
(§4) PSMA-617 in SLC transporters.
(§5) NA: not analyzed. Test substances were considered as substrates in case of fold accumulation values > 2 combined with inhibition values higher than 50%.
4.4 Organic anion transporter OAT2v1 […]
expressed as mean (n=3) ± SD. Concentrations are nominal.
Table S13: ([α,β-3H]Nal)Lu-PSMA-617-accumulation in OAT2v1 transporter expressing (HEK293-OAT2v1-LV) and […]
(§6) Conditions Accumulation (pmol/mg protein)
Compound Nominal In OAT2v1 Fold concentration Minutes transporter In control Active accumulation
(§7) [µM] expressing cells transport
(§8) Positive control (accumulation in cpm)

human OCT3 = biological target: T2, human OCT3 (Homo sapiens, UniProt O75751); experiment: SLC transporter substrate assay, HEK293-OCT3-LV vs control HEK293-Mock-LV cells; assay type: in vitro ADME
T2 construct: host or cells: HEK293-OCT3-LV
T2 sequence (O75751 1-556): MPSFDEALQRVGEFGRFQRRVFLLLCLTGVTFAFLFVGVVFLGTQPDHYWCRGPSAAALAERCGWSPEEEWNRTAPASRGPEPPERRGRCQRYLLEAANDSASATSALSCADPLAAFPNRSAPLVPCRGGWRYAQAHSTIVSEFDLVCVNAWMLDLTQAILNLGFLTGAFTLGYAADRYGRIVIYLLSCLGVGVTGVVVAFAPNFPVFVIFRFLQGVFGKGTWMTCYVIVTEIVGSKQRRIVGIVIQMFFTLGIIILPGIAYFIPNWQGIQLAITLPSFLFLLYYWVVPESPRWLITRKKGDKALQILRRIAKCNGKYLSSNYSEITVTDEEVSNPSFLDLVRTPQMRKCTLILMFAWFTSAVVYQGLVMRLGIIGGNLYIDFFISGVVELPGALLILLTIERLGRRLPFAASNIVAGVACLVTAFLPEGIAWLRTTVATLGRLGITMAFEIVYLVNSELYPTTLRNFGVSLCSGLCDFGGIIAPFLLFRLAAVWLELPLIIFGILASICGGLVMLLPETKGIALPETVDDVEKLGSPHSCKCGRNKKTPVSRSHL
Description: as §1, §2
(Cell line) at 37°C [min] [h] […]
into transfected and control cells.
as §3, §4, §5
4.7 Organic cation transporter OCT3
(HEK293-OCT3-LV) and control cells (HEK293-Mock-LV) applying 2- and 20-minute incubation periods, measured in SLC transporter substrate assay. […] Concentrations are nominal.
Table S16: ([α,β-3H]Nal)Lu-PSMA-617-accumulation in OCT3 transporter-expressing (HEK293-OCT3-LV) and control […]
as §6
Compound Nominal In OCT3 Fold concentration Minutes transporter In control Active accumulation
as §7, §8
MPP +: 1-methyl -4-phenylpyridinium.

[1] = 0.03 µM nominal + Indomethacin 300 µM
[2] = 0.30 µM nominal + Indomethacin 300 µM

Question: Which results are given for `[3H]C(c1ccc2ccccc2c1)C([3H])(NC(=O)C1CCC(CNC(=O)CN2CCN(CC(=O)[O-])CCN(CC(=O)[O-])CCN(CC(=O)[O-])CC2)CC1)C(=O)NCCCCC(NC(=O)NC(CCC(=O)O)C(=O)O)C(=O)O.[Lu+3]` (stereo not drawn) [([α,β-^3H]Nal)Lu-PSMA-617]?
Answer: Accumulation in OAT2v1 transporter expressing cells (human OAT2v1; [1]): 0.06 ± 0.01 pmol/mg protein; Accumulation in control cells (human OAT2v1; [1]): 0.04 ± 0.00 pmol/mg protein; Accumulation, active transport (human OAT2v1; [1]): 0.01 ± 0.01 pmol/mg protein; Fold accumulation (human OAT2v1; [1]): 1.24; Accumulation in OAT2v1 transporter expressing cells (human OAT2v1; 0.03 µM nominal, no inhibitor): 0.07 ± 0.01 pmol/mg protein; Accumulation in control cells (human OAT2v1; 0.03 µM nominal, no inhibitor): 0.04 ± 0.00 pmol/mg protein; Accumulation, active transport (human OAT2v1; 0.03 µM nominal, no inhibitor): 0.03 ± 0.01 pmol/mg protein; Fold accumulation (human OAT2v1; 0.03 µM nominal, no inhibitor): 1.77; Accumulation in OAT2v1 transporter expressing cells (human OAT2v1; [2]): 0.66 ± 0.10 pmol/mg protein; Accumulation in control cells (human OAT2v1; [2]): 0.43 ± 0.03 pmol/mg protein; Accumulation, active transport (human OAT2v1; [2]): 0.24 ± 0.10 pmol/mg protein; Fold accumulation (human OAT2v1; [2]): 1.55; Accumulation in OAT2v1 transporter expressing cells (human OAT2v1; 0.30 µM nominal, no inhibitor): 0.66 ± 0.04 pmol/mg protein; Accumulation in control cells (human OAT2v1; 0.30 µM nominal, no inhibitor): 0.36 ± 0.03 pmol/mg protein; Accumulation, active transport (human OAT2v1; 0.30 µM nominal, no inhibitor): 0.30 ± 0.05 pmol/mg protein; Fold accumulation (human OAT2v1; 0.30 µM nominal, no inhibitor): 1.83; Max. transporter-specific fold accumulation, without inhibitor (human OAT2v1; 0.3 µM): 1.83; Uptake via transporter (OAT2v1) (human OAT2v1; absence and presence of indomethacin): not taken up; Max. transporter-specific fold accumulation, with inhibitor (human OAT2v1; Indomethacin, 0.3 µM): 1.55; Accumulation in OCT3 transporter expressing cells (human OCT3; 0.03 µM nominal, 2 min): 0.026 ± 0.005 pmol/mg protein; Accumulation in control cells (human OCT3; 0.03 µM nominal, 2 min): 0.022 ± 0.002 pmol/mg protein; Accumulation, active transport (human OCT3; 0.03 µM nominal, 2 min): 0.003 ± 0.005 pmol/mg protein; Fold accumulation (human OCT3; 0.03 µM nominal, 2 min): 1.15; Accumulation in OCT3 transporter expressing cells (human OCT3; 0.03 µM nominal, 20 min): 0.041 ± 0.004 pmol/mg protein; Accumulation in control cells (human OCT3; 0.03 µM nominal, 20 min): 0.032 ± 0.005 pmol/mg protein; Accumulation, active transport (human OCT3; 0.03 µM nominal, 20 min): 0.009 ± 0.006 pmol/mg protein; Fold accumulation (human OCT3; 0.03 µM nominal, 20 min): 1.29; Accumulation in OCT3 transporter expressing cells (human OCT3; 0.30 µM nominal, 2 min): 0.351 ± 0.047 pmol/mg protein; Accumulation in control cells (human OCT3; 0.30 µM nominal, 2 min): 0.277 ± 0.047 pmol/mg protein; Accumulation, active transport (human OCT3; 0.30 µM nominal, 2 min): 0.074 ± 0.067 pmol/mg protein; Fold accumulation (human OCT3; 0.30 µM nominal, 2 min): 1.27; Accumulation in OCT3 transporter expressing cells (human OCT3; 0.30 µM nominal, 20 min): 0.446 ± 0.098 pmol/mg protein; Accumulation in control cells (human OCT3; 0.30 µM nominal, 20 min): 0.332 ± 0.047 pmol/mg protein; Accumulation, active transport (human OCT3; 0.30 µM nominal, 20 min): 0.113 ± 0.109 pmol/mg protein; Fold accumulation (human OCT3; 0.30 µM nominal, 20 min): 1.34; Substrate assessment (OCT3) (human OCT3; 0.03, 0.30 µM, 2, 20 min): no in vitro substrate; Max. transporter-specific fold accumulation, without inhibitor (human OCT3; 20 min, 0.3 µM): 1.34
